# Experimental data taken from the supplement of paper PMC10307832.
# Legend:
# Assay in all cases: relative viability (nuclei count vs DMSO), 5 days (fraction); higher = more cells survive
# Omipalisib + Dasatinib = compound: COc1ncc(-c2ccc3nccc(-c4ccnnc4)c3c2)cc1NS(=O)(=O)c1ccc(F)cc1F [Omipalisib] + Cc1nc(Nc2ncc(C(=O)Nc3c(C)cccc3Cl)s2)cc(N2CCN(CCO)CC2)n1 [Dasatinib] (partner 0.075 µM)
# Procedure, shortened: (§1)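 Lung cancer cell lines in 1536-well plates got either a single drug or a fixed anchor-drug dose together with five library-drug doses (not always all listed) in √10 steps, by pin tool, on the day after seeding. Nuclei were counted after 5 days, and relative viability is the treated-to-vehicle ratio of nuclei counts. Values are medians of duplicate plates.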
# Omipalisib + Pictilisib = compound: COc1ncc(-c2ccc3nccc(-c4ccnnc4)c3c2)cc1NS(=O)(=O)c1ccc(F)cc1F [Omipalisib] + CS(=O)(=O)N1CCN(Cc2cc3nc(-c4cccc5[nH]ncc45)nc(N4CCOCC4)c3s2)CC1 [Pictilisib] (partner 1 µM)
# Procedure, shortened: as §1
# Omipalisib + Trametinib = compound: COc1ncc(-c2ccc3nccc(-c4ccnnc4)c3c2)cc1NS(=O)(=O)c1ccc(F)cc1F [Omipalisib] + CC(=O)Nc1cccc(-n2c(=O)n(C3CC3)c(=O)c3c(Nc4ccc(I)cc4F)n(C)c(=O)c(C)c32)c1 [Trametinib] (partner 0.02 µM)
# Procedure, shortened: as §1
# Omipalisib + Palbociclib = compound: COc1ncc(-c2ccc3nccc(-c4ccnnc4)c3c2)cc1NS(=O)(=O)c1ccc(F)cc1F [Omipalisib] + CC(=O)c1c(C)c2cnc(Nc3ccc(N4CCNCC4)cn3)nc2n(C2CCCC2)c1=O [Palbociclib] (partner 0.5 µM)
# Procedure, shortened: as §1
# Omipalisib + Alpelisib = compound: COc1ncc(-c2ccc3nccc(-c4ccnnc4)c3c2)cc1NS(=O)(=O)c1ccc(F)cc1F [Omipalisib] + Cc1nc(NC(=O)N2CCC[C@H]2C(N)=O)sc1-c1ccnc(C(C)(C)C(F)(F)F)c1 [Alpelisib] (partner 2 µM)
# Procedure, shortened: as §1
# Omipalisib + Lapatinib = compound: COc1ncc(-c2ccc3nccc(-c4ccnnc4)c3c2)cc1NS(=O)(=O)c1ccc(F)cc1F [Omipalisib] + CS(=O)(=O)CCNCc1ccc(-c2ccc3ncnc(Nc4ccc(OCc5cccc(F)c5)c(Cl)c4)c3c2)o1 [Lapatinib] (partner 2 µM)
# Procedure, shortened: as §1
Cell Line,relative viability (Omipalisib + Dasatinib; first compound 0.0003 µM),relative viability (Omipalisib + Dasatinib; first compound 0.003 µM),relative viability (Omipalisib + Dasatinib; first compound 0.03 µM),relative viability (Omipalisib + Pictilisib; first compound 0.0003 µM),relative viability (Omipalisib + Pictilisib; first compound 0.003 µM),relative viability (Omipalisib + Pictilisib; first compound 0.03 µM),relative viability (Omipalisib + Trametinib; first compound 0.0003 µM),relative viability (Omipalisib + Trametinib; first compound 0.003 µM),relative viability (Omipalisib + Trametinib; first compound 0.03 µM),relative viability (Omipalisib + Palbociclib; first compound 0.0003 µM),relative viability (Omipalisib + Palbociclib; first compound 0.003 µM),relative viability (Omipalisib + Palbociclib; first compound 0.03 µM),relative viability (Omipalisib + Alpelisib; first compound 0.0003 µM),relative viability (Omipalisib + Alpelisib; first compound 0.003 µM),relative viability (Omipalisib + Alpelisib; first compound 0.03 µM),relative viability (Omipalisib + Lapatinib; first compound 0.0003 µM),relative viability (Omipalisib + Lapatinib; first compound 0.003 µM),relative viability (Omipalisib + Lapatinib; first compound 0.03 µM)
PC-14,0.31,0.237,0.079,0.749,0.619,0.383,0.807,0.682,0.243,0.521,0.614,0.327,0.997,0.955,0.876,0.308,0.228,0.162
NCI-H2228,0.43,0.275,0.133,0.41,0.265,0.407,0.505,0.187,0.173,0.839,0.47,0.234,0.764,0.657,0.251,0.993,0.697,0.291
HCC-44,,,,0.579,0.464,0.441,0.983,0.921,0.468,0.962,0.962,0.879,0.742,0.619,0.29,1.09,0.96,0.432
NCI-H727,0.353,0.327,0.366,0.321,0.361,0.231,0.381,0.337,0.264,0.644,0.487,0.552,0.594,0.445,0.5,0.723,0.776,0.674
NCI-H520,0.159,0.162,0.131,0.243,0.212,0.251,0.576,0.314,0.172,0.203,0.152,0.145,0.802,0.608,0.292,0.778,0.581,0.22
NCI-H2347,0.286,0.253,0.26,0.682,0.612,0.449,0.245,0.252,0.215,0.393,0.432,0.4,1.05,1.05,0.69,0.855,0.902,0.81
NCI-H647,0.162,0.0952,0.0677,0.462,0.307,0.386,0.341,0.278,0.15,0.263,0.21,0.179,1.09,0.98,0.33,0.932,0.782,0.272
NCI-H2342,0.298,0.294,0.243,,,,0.732,0.583,0.449,0.459,0.442,0.406,,,,,,
LXF-289,0.235,0.119,0.0562,0.772,0.684,0.671,0.65,0.747,0.407,0.62,0.574,0.416,1.06,1.02,0.792,0.894,0.956,0.785
